# Test results reported in ChEMBL document CHEMBL5352492, “Application of deep generative model for design of Pyrrolo[2,3-d] pyrimidine derivatives as new selective TANK binding kinase 1 (TBK1) inhibitors” (Eur J Med Chem, 2023).
# Tests used:
# [1] = target: Activated CDC42 kinase 1 (Homo sapiens) (UniProt Q07912); experiment: Inhibition of ACK1 (unknown origin) at 100 to 1000 nM relative to control; settings: dose 100-1000 nM
# [2] = target: Mast/stem cell growth factor receptor Kit (Homo sapiens) (UniProt P10721); experiment: Inhibition of KIT (unknown origin) at 100 to 1000 nM relative to control; settings: dose 100-1000 nM
# RAW264.7 [3] = experiment: Inhibition of LPS-induced cxcl10 in mouse RAW264.7 cells treated for 2 hrs RTq-PCR analysis; assay type: functional, cell-based; settings: dose 0.1-1 µM
# [4] = target: Fibroblast growth factor receptor 4 (Homo sapiens) (UniProt P22455); experiment: Inhibition of FGFR4 (unknown origin) at 100 to 1000 nM relative to control; settings: dose 100-1000 nM
# [5] = target: Fibroblast growth factor receptor 3 (Homo sapiens) (UniProt P22607); experiment: Inhibition of FGFR3 (unknown origin) at 100 to 1000 nM relative to control; settings: dose 100-1000 nM
# [6] = target: Vascular endothelial growth factor receptor 3 (Homo sapiens) (UniProt P35916); experiment: Inhibition of VEGFR3 (unknown origin) at 100 to 1000 nM relative to control; settings: dose 100-1000 nM
# [7] = target: Epidermal growth factor receptor (Homo sapiens) (UniProt P00533); experiment: Inhibition of EGFR (unknown origin) at 100 to 1000 nM relative to control; settings: dose 100-1000 nM
# [8] = target: Ephrin type-A receptor 2 (Homo sapiens) (UniProt P29317); experiment: Inhibition of EPH-A2 (unknown origin) at 100 to 1000 nM relative to control; settings: dose 100-1000 nM
# A549 = experiment: Antiproliferative activity against human A549 cells measured after 72 hrs by SRB staining method; assay type: functional, cell-based; settings: A549, 72 h
# [9] = target: Receptor tyrosine-protein kinase erbB-2 (Homo sapiens) (UniProt P04626); experiment: Inhibition of ErbB2 (unknown origin) at 100 to 1000 nM relative to control; settings: dose 100-1000 nM
# Chain of Receptor tyrosine-protein kinase erbB-2 (Homo sapiens) (P04626 whole entry): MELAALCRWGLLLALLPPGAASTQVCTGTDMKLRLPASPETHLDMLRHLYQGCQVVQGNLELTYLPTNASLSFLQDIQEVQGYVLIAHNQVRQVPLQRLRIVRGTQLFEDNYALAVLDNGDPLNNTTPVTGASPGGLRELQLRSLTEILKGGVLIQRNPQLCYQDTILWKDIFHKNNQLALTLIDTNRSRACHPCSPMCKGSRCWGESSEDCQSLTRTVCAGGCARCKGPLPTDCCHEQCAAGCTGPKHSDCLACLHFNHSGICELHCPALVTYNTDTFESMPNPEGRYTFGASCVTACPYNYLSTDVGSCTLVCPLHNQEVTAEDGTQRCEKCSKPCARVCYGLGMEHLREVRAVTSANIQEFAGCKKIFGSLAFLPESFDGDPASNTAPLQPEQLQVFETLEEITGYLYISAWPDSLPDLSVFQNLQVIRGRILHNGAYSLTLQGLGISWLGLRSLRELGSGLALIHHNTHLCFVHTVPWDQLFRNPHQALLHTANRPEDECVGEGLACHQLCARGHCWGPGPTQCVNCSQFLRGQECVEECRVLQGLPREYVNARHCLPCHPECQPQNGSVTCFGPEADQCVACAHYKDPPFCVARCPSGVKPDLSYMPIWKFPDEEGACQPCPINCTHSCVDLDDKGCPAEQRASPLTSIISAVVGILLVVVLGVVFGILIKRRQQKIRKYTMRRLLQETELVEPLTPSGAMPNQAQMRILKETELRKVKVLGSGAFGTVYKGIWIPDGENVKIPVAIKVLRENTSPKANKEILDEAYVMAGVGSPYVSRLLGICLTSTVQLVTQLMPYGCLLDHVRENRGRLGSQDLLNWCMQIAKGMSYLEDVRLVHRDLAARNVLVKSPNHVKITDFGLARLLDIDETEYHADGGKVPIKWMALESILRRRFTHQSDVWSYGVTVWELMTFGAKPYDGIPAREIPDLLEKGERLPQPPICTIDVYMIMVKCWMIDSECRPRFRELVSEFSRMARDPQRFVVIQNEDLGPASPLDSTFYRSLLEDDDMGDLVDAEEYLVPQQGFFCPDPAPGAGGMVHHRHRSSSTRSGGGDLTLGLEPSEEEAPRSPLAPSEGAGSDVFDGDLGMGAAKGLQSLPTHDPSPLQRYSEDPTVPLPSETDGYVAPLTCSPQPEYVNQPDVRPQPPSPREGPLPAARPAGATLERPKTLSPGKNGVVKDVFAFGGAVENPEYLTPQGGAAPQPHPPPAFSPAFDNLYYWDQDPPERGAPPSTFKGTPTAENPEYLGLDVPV
# [10] = target: Tyrosine-protein kinase BTK (Homo sapiens) (UniProt Q06187); experiment: Inhibition of BTK (unknown origin) at 100 to 1000 nM relative to control; settings: dose 100-1000 nM
# [11] = target: Proto-oncogene tyrosine-protein kinase receptor Ret (Homo sapiens) (UniProt P07949); experiment: Inhibition of RET (unknown origin) at 100 to 1000 nM relative to control; settings: dose 100-1000 nM
# Chain of Proto-oncogene tyrosine-protein kinase receptor Ret (Homo sapiens) (P07949 whole entry): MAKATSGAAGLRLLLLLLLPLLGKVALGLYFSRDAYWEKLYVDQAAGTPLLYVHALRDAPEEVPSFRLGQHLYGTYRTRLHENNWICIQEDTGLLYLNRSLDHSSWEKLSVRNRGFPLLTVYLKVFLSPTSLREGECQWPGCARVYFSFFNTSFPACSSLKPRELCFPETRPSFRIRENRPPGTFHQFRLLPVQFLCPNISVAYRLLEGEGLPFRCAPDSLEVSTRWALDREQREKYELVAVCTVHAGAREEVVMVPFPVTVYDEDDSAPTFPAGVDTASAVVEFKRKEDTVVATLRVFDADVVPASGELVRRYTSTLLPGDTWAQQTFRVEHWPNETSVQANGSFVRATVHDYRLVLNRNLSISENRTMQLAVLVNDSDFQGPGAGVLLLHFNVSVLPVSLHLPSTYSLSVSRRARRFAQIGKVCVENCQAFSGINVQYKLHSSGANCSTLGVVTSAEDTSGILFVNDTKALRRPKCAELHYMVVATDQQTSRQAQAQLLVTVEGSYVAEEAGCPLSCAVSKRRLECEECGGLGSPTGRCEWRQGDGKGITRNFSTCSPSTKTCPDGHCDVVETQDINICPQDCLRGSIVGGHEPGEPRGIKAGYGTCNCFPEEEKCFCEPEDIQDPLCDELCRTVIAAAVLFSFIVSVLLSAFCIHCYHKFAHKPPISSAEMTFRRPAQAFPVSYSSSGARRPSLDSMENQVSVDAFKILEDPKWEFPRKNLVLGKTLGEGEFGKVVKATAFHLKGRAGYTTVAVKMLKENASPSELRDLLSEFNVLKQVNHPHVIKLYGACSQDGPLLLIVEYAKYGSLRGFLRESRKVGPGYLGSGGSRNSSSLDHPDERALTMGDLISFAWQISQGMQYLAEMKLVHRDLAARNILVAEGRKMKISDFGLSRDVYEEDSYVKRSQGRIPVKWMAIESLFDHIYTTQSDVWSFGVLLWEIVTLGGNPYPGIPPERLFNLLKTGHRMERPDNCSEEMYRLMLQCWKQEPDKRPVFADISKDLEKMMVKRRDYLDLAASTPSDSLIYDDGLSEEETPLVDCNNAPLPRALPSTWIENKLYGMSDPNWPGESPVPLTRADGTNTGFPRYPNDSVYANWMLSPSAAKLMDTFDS
# [12] = target: Ephrin type-B receptor 2 (Homo sapiens) (UniProt P29323); experiment: Inhibition of EPH-B2 (unknown origin) at 100 to 1000 nM relative to control; settings: dose 100-1000 nM
# THP1-Blue ISG [13] = experiment: Inhibition of LPS-induced ifn-beta in human THP1-Blue ISG cells treated for 2 hrs RTq-PCR analysis; assay type: functional, cell-based; settings: dose 0.1-1 µM
# [14] = target: Proto-oncogene tyrosine-protein kinase Src (Homo sapiens) (UniProt P12931); experiment: Inhibition of Src (unknown origin) at 100 to 1000 nM relative to control; settings: dose 100-1000 nM
# [15] = target: Macrophage colony-stimulating factor 1 receptor (Homo sapiens) (UniProt P07333); experiment: Inhibition of CSF1R (unknown origin) at 100 to 1000 nM relative to control; settings: dose 100-1000 nM
# Chain of Macrophage colony-stimulating factor 1 receptor (Homo sapiens) (P07333 whole entry): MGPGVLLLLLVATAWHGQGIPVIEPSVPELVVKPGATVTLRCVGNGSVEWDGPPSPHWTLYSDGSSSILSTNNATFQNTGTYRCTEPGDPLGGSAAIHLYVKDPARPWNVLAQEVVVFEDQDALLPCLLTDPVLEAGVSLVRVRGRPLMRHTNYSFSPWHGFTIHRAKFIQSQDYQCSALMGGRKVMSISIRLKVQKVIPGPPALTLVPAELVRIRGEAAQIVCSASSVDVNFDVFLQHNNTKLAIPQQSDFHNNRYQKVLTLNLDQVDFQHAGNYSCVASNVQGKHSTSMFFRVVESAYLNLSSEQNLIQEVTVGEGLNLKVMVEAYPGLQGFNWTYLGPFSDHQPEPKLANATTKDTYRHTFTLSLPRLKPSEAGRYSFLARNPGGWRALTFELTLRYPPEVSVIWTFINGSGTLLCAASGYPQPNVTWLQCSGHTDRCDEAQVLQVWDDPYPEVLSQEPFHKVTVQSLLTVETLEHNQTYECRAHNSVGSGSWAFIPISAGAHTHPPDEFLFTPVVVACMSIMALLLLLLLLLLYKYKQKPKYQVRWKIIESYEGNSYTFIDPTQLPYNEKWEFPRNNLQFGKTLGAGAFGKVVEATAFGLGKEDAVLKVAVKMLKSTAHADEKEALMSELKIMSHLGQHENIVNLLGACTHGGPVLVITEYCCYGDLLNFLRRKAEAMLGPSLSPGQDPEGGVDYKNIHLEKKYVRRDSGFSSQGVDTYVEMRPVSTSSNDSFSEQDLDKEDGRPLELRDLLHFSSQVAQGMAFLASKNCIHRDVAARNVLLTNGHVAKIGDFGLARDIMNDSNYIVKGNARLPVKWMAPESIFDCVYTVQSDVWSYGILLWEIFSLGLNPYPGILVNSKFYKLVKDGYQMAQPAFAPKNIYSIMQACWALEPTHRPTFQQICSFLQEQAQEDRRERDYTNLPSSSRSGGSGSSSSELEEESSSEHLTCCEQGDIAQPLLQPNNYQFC
# [16] = target: Insulin-like growth factor 1 receptor (Homo sapiens) (UniProt P08069); experiment: Inhibition of IGF1R (unknown origin) at 100 to 1000 nM relative to control; settings: dose 100-1000 nM
# Chain of Insulin-like growth factor 1 receptor (Homo sapiens) (P08069 whole entry, looked up): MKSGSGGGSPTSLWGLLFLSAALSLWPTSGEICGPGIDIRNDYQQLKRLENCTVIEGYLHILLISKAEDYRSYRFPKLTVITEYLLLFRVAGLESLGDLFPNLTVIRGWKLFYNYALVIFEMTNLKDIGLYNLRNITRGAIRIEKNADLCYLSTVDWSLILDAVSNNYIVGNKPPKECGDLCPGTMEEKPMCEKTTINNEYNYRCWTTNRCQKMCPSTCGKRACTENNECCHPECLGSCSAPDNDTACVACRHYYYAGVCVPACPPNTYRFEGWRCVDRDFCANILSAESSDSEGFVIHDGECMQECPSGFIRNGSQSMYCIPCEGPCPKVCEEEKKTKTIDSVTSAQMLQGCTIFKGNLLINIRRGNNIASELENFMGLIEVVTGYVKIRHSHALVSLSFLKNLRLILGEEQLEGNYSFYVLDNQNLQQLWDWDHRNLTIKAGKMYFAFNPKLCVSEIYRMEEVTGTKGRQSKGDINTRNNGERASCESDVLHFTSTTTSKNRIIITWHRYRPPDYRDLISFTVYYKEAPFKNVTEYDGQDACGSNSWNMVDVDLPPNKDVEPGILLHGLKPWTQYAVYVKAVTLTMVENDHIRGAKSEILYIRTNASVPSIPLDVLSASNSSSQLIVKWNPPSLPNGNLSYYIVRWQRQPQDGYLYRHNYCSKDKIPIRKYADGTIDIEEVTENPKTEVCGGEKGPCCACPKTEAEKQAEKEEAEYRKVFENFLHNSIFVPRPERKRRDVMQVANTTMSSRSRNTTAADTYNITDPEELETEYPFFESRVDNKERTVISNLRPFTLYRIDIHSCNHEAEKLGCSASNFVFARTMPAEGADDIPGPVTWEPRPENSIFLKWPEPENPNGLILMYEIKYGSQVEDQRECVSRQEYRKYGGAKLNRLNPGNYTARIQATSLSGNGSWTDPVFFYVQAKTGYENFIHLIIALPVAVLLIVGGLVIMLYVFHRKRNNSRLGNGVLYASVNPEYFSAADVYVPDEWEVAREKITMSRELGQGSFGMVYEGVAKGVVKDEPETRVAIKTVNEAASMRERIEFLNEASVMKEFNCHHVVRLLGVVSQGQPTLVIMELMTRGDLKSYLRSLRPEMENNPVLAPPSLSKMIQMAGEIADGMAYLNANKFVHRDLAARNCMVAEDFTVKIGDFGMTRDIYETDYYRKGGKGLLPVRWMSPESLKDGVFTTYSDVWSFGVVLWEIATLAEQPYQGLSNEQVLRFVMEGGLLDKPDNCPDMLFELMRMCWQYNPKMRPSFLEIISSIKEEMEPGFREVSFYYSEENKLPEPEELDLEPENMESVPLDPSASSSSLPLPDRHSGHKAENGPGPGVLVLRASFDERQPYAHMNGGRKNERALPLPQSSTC
# RAW264.7 [17] = experiment: Inhibition of LPS-induced ifn-beta in mouse RAW264.7 cells treated for 2 hrs RTq-PCR analysis; assay type: functional, cell-based; settings: dose 0.1-1 µM
# [18] = target: Focal adhesion kinase 1 (Homo sapiens) (UniProt Q05397); experiment: Inhibition of FAK (unknown origin) at 100 to 1000 nM relative to control; settings: dose 100-1000 nM
# [19] = target: Tyrosine-protein kinase ABL1 (Homo sapiens) (UniProt P00519); experiment: Inhibition of Abl (unknown origin) at 100 to 1000 nM relative to control; settings: dose 100-1000 nM
# [20] = target: Tyrosine-protein kinase ITK/TSK (Homo sapiens) (UniProt Q08881); experiment: Inhibition of ITK (unknown origin) at 100 to 1000 nM relative to control; settings: dose 100-1000 nM
# [21] = target: T1, Serine/threonine-protein kinase TBK1 (Homo sapiens, UniProt Q9UHD2); experiment: Inhibition of TBK1 in human THP1-Blue ISG cells by measuring SEAP gene expression incubated for 24 hrs by reporter gene assay; assay type: cell-based
# T1 sequence (Q9UHD2 whole entry): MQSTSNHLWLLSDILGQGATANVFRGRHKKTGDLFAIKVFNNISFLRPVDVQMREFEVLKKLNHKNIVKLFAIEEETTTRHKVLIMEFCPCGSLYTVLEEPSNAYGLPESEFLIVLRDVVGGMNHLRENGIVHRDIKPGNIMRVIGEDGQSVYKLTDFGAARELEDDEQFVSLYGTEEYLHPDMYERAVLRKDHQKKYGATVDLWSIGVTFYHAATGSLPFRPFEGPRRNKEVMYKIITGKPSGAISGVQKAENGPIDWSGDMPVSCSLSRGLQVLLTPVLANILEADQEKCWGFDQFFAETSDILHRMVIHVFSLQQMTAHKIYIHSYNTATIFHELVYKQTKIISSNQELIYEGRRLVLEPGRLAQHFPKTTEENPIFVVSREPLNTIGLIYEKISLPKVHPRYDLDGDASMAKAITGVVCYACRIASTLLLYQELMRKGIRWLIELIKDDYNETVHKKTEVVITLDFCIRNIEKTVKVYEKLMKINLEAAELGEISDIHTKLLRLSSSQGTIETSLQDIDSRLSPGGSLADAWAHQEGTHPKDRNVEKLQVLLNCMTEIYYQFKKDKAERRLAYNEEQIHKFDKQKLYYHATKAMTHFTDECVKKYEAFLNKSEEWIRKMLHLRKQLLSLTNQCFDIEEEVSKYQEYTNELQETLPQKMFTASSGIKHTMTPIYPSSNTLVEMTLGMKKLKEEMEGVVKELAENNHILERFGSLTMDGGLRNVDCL
# [22] = Antiproliferative activity against LLC cells measured after 72 hrs by SRB staining method; assay type: functional, cell-based; settings: Mus musculus, Lewis lung carcinoma
# [23] = target: T2, Serine/threonine-protein kinase TBK1 (Homo sapiens) (UniProt Q9UHD2); experiment: Inhibition of TBK1 (unknown origin) incubated at 100 nM for 1 hr in presence of ATP by FRET based Z'-Lyte assay relative to control
# T2 sequence (whole entry): T1 sequence (Q9UHD2 whole entry)
# [24] = target: Receptor tyrosine-protein kinase erbB-4 (Homo sapiens) (UniProt Q15303); experiment: Inhibition of ErbB4 (unknown origin) at 100 to 1000 nM relative to control; settings: dose 100-1000 nM
# [25] = target: Platelet-derived growth factor receptor beta (Homo sapiens) (UniProt P09619); experiment: Inhibition of PDGFR-beta (unknown origin) at 100 to 1000 nM relative to control; settings: dose 100-1000 nM
# THP1-Blue ISG [26] = experiment: Inhibition of LPS-induced cxcl10 in human THP1-Blue ISG cells treated for 2 hrs RTq-PCR analysis; assay type: functional, cell-based; settings: dose 0.1-1 µM
# [27] = target: Receptor-type tyrosine-protein kinase FLT3 (Homo sapiens) (UniProt P36888); experiment: Inhibition of Flt-3 (unknown origin) at 100 to 1000 nM relative to control; settings: dose 100-1000 nM
# [28] = target: T2, Serine/threonine-protein kinase TBK1 (Homo sapiens); experiment: Inhibition of TBK1 (unknown origin) incubated at 1000 nM for 1 hr in presence of ATP by FRET based Z'-Lyte assay relative to control
smiles,measurement,setting,value
CC(=O)N1CCN(Cc2cccc(Nc3ncc4ccn(CCCNC(=O)C5CCC5)c4n3)c2)CC1,inhibition,[1],< 35%
same,inhibition,[2],< 35%
same,inhibition,RAW264.7 [3],Dose-Dependent Effect
same,inhibition,[4],< 35%
same,inhibition,[5],< 35%
same,inhibition,[6],< 35%
same,inhibition,[7],< 35%
same,inhibition,[8],< 35%
same,IC50,A549,17.6 µM
same,inhibition,[9],< 35%
same,inhibition,[10],< 35%
same,inhibition,[11],< 35%
same,inhibition,[12],< 35%
same,inhibition,THP1-Blue ISG [13],Dose-Dependent Effect
same,inhibition,[14],< 35%
same,inhibition,[15],< 35%
same,inhibition,[16],< 35%
same,inhibition,RAW264.7 [17],Dose-Dependent Effect
same,inhibition,[18],< 35%
same,inhibition,[19],< 35%
same,inhibition,[20],< 35%
same,IC50,[21],0.566 µM
same,IC50,[22],9.4 µM
same,inhibition,[23],66.2%
same,inhibition,[24],< 35%
same,inhibition,[25],< 35%
same,inhibition,THP1-Blue ISG [26],Dose-Dependent Effect
same,inhibition,[27],< 35%
same,inhibition,[28],89%
